In patent US10259753B2, “Multifunctional organic agricultural fertilizer composition and process for preparation thereof” (priority 2014, dated 2019):
Values belong to the molecule of their own block, whether it stands above or below them.

Legend:
Pest worms = assay: Control of pest worms on tomato by Cypermethrin 25% EC in well water treated with the composition; format: in vivo; conditions: Cypermethrin 125 ml/acre with composition, control: 150 ml/acre in normal well water
Method: The following compositions are used in the treatment for Tomato:
(§1) Tomato crop infested with worms was sprayed with Cypermethrin 25% EC using normal well water and well water treated with the compositions of the invention. 4000 Sq. meter was treated only with water and another 8000 square meter plot was treated with composition of the invention as per Example No. 3 or 5. In both the plots, pest is controlled. In treated plot, the pest control is achieved at 95% and with 15% saving in the dosage of cypermethrin pesticide.

[1] = pH and color of cypermethrin spray water treated with the composition; format: physicochemical; conditions: composition 2 Ltr per 8000 sq. meter; control: normal well water
Method: as §1

weeds = assay: Control of weeds in cotton crop by glyphosate spray in water treated with the composition; format: in vivo; conditions: Glyfosate 750 ml/acre with composition, control: 1 Ltr/acre with plain water
Method: The cotton crop was treated with glyphosate at 1 Ltr per acre with plain water and Glyfosate used with the composition of Example 3 and 5 was used at 750 ml/acre.
(§2) The water was treated with composition of example 3 and 5 as given in Table 15 at 2 to 3 ml per ltr of water till the pH of 4.5 and 4.2 is achieved as indicated by the color achieved to the water.

[2] = pH and color of glyphosate spray water treated with the composition; format: physicochemical; conditions: water treated with composition at 2 to 3 ml per ltr; control: plain water
Method: as §2

[3] = Urea volatilization: loss of soil-applied urea, from nitrogen content of soil samples; conditions: 50 Kg urea in soil; 1 ltr of composition where used
Method: Experiment was carried out to check the effect of compositions of present invention to see the efficiency to prevent volatilization in urea.
It is noted that the pH of urea in soil in treatment T2 and T3 was adjusted to 4.5 to 5.0 due to addition of composition of invention.
The soil samples were collected from various selected locations wherever urea is applied and then checked for nitrogen content in laboratory after 0, 2, 4, 6, 8 and 10 days of urea application.

SMILES: CC1(C)C(C=C(Cl)Cl)C1C(=O)OC(C#N)c1cccc(Oc2ccccc2)c1 (centres unmarked) [Cypermethrin]
- Control of Pest worms (Pest worms): 78%
- pH of Cypermethrin Spray solution [1]: 7.20

SMILES: O=C(O)CNCP(=O)(O)O [Glyfosate, glyphosate]
- Control of weeds (weeds): 72%
- pH of Glyfosate spray solution [2]: 7.65

- pH achieved of urea in soil [3]: pH = 7.5
SMILES: NC(N)=O [Plain Urea, Urea]
